In patent EP4813985A1, “PREPARATION OF QUINAZOLINONE DERIVATIVE AS KINASE INHIBITOR, AND USE THEREOF” (Xizang Haisco Pharmaceutical Co., Ltd., priority 2023, dated 2025):
Like-named read-outs stand apart in the source and are kept apart here.

Tests used:
BRAFV600E = biological target: T1, BRAFV600E (Homo sapiens, UniProt P15056, V600E); assay: BRAFV600E enzyme activity test (ADP-Glo, MEK1K97R substrate); assay type: biochemical; settings: Inhibitory activities of compounds on BRAFV600E
T1 construct: purchased ABCAM ab204154
Description: BRAFV600E (ABCAM, ab204154) and MEK1K97R (USBio, M2865-06J) proteins were diluted at an appropriate dilution factor using 1×Assay buffer (PH = 7.4 Tris-HCl buffer, supplemented with 10 mM MgCl2) such that the final concentration of BRAFV600E was 10 ng/µL and the final concentration of substrate MEK1K97R was 1 µM. 1 µL of BRAFV600E, 1 µL of compound serial dilution (final concentration starting from 2 µM, 5-fold dilution, 8 concentrations), and 6 µL of Assay buffer were pipetted to a 384-well reaction plate with a capacity of 20 µL. The plate was pre-incubated in a constant temperature incubator at 37°C for 30 min. 1 µL of 200 µM ATP and 1 µM MEK1 K97R were added to the reaction wells corresponding to the compound incubation, and mixed evenly by shaking, and preincubation was performed in a constant temperature incubator at 37°C for 60 min for enzymatic reaction. After the reaction was completed, 5 µL of the above reaction product was pipetted to another 384-well plate, and 5 µL of formulated ADP-Glo™ Reagent (Promega, V9101) was added and mixed evenly by pipetting, and then the plate was placed at room temperature for 40 min. 10 µL Kinase Detection Reagent was added to the 384-well plate and incubated at room temperature for 40 min. Finally, a microplate reader (BMG LRBTECH) was used and Luminescence module was selected to detect the LUM fluorescence value of each well (the gain value was fixed at 3600), and the formula Inhibition rate% = (1−(LUM Compound−LUM Background)/(LUM Solvent−LUM Background))∗100% [formula] was used to calculate the inhibition rate of the compound on BRAFV600E. The Graphpad software log(inhibitor) vs. response -- Variable slope (four parameters) equation was used to perform fitting analysis and calculate the IC50value of the sample.

A375 cells = assay: A375 cell proliferation inhibition test; assay type: cell-based; settings: Homo sapiens, A-375, 72 h
Description: A375 cells (ATCC, CRL-1619) were cultured in DMEM complete medium (+10% FBS) in a CO2 incubator at 37°C for 48 h. The cells were trypsinised and counted, and then the density was adjusted to 1.67 × 10^4 cells/mL. 90 µL (1500 cells) of cells were inoculated into each well of a 96-well transparent bottom plate, and the plate was transferred to a CO2 incubator and the cells were cultured at 37°C overnight. After the cells were incubated overnight, 10 µL of the diluted compound (final concentration starting from 10 µM, 3-fold dilution, 11 concentrations) was added to each well using a multi-channel pipette. The […] control was a serum-free medium containing DMSO. After mixing evenly, the cells were placed in a CO2 incubator at 37°C for 72 h. After the incubation, the CellCounting-Lite®2.0 kit detection solution (Vazyme, DD1101-03) was taken out and returned to room temperature. 100 µL of CellCounting-Lite2.0 detection solution was added to each well, the plate was sealed with a sealing film, and the plate was placed on a shaker for shaking for 15 min (the whole process should be kept away from light). The Luminescence module of the microplate reader (BMG LRBTECH) was used to detect the fluorescence signal value LUM of each well. The formula Inhibition rate% = ((LUM Solvent−LUM Compound)/(LUM Solvent))∗100% [formula] was used to calculate the inhibition rate of the compound. The Graphpad software log(inhibitor) vs. response -- Variable slope (four parameters) equation was used to perform fitting analysis and calculate the IC50value of the sample. The ordinate of the data is the percentage of inhibition rate, and the abscissa is the logarithm of the sample concentration (Log10).

[1] = Pharmacokinetic test in mice; assay type: in vivo, ICR mice; settings: mouse, plasma; for Vd: read-out: Vdss
Description: 3.1 Experimental animals: Male ICR mice, 20-25 g, 6 mice/compound, purchased from Chengdu Dossy Experimental Animals Co., Ltd.
3.2 Experimental design: On the day of the experiment, the ICR mice were randomly grouped according to their body weights. The animals were fasted with water available for 12-14 h one day before the administration, and were fed 4 h after the administration. Table 3.1 Administration information
vehicle for intravenous administration: 5% DMA + 5% Solutol + 90% Saline; vehicle for intragastric administration: 0.5% MC
Before and after administration, 0.06 mL of blood was taken from the orbit under isoflurane anaesthesia and placed in an EDTAK2 centrifuge tube. The tube was centrifuged at 5000 rpm at 4°C for 10 min, and plasma was collected. The blood sampling time points for both the intravenous administration group and intragastric administration group were 0 min, 5 min, 15 min, 30 min, 1 h, 2 h, 4 h, 7 h, 24 h, and 48 h. Before analysis and detection, all samples were stored at -80°C, and the samples were quantitatively analysed by LC-MS/MS. Table 3.2 Pharmacokinetic parameters of test compounds in plasma of mice

[2] = Pharmacokinetic test in rats; assay type: in vivo, SD rats; settings: rat, plasma; for Vd: read-out: Vdss
Description: 5.1 Experimental animals: Male SD rats, about 220 g, 6-8 weeks old, 6 rats/compound, purchased from Chengdu Dossy Experimental Animals Co., Ltd.
5.2 Experimental design: On the day of the experiment, the SD rats were randomly grouped according to their body weights. The animals were fasted with water available for 12-14 h one day before the administration, and were fed 4 h after the administration.
5.3 Test compounds: compounds in the examples and control compounds. Table 5.1 Administration information
Before and after administration, 0.1 ml of blood was taken from the orbit under isoflurane anaesthesia and placed in an EDTAK2 centrifuge tube. The tube was centrifuged at 5000 rpm at 4°C for 10 min, and plasma was collected. Blood sampling time points for the intravenous administration group: 0 min, 5 min, 15 min, 30 min, 1 h, 2 h, 4 h, 6 h, 8 h, 24 h, and 48 h; blood sampling time points for the intragastric administration group: 0 min, 5 min, 15 min, 30 min, 1 h, 2 h, 4 h, 6 h, 8 h, 24 h, and 48 h. Before analysis and detection, all samples were stored at -80°C, and the samples were quantitatively analysed by LC-MS/MS. Table 5.2 Pharmacokinetic parameters of test compounds in plasma of rats

[3] = Liver microsomal stability test (monkey liver microsomal model); assay type: in vitro ADME; settings: monkey liver microsomes, 1 µM test compound, NADPH, 37°C
Description: In this experiment, liver microsomes of five species, including human, monkey, dog, rat and mouse, were used as in vitro models to evaluate the metabolic stability of the test compound.
At 37°C, 1 µM of the test compound was co-incubated with microsomal protein and coenzyme NADPH. At given time points of the reaction (5 min, 10 min, 20 min, 30 min, and 60 min), the reaction was terminated by adding ice-cold acetonitrile containing an internal standard. The LC-MS/MS method was used to measure the concentration of the test compound in the sample. T1/2 was calculated using the ln value of the percentage of drug remaining in the incubation system and the incubation time. In addition, the intrinsic clearance in liver microsomes CLint(mic) and the intrinsic clearance in liver CLint(Liver) were further calculated. Table 6 Results of test compounds in monkey liver microsomal model

[4] = Pharmacokinetic test in mice; assay type: in vivo, ICR mice; settings: i.g. (10 mg/kg), relative to Control compound 1
[5] = A375 cells, values in text, read-out: IC50
[6] = Inhibitory activities of compounds on A375 cells, read-out: IC50/nM

T1 sequence (P15056 416-766 V600E limits assumed): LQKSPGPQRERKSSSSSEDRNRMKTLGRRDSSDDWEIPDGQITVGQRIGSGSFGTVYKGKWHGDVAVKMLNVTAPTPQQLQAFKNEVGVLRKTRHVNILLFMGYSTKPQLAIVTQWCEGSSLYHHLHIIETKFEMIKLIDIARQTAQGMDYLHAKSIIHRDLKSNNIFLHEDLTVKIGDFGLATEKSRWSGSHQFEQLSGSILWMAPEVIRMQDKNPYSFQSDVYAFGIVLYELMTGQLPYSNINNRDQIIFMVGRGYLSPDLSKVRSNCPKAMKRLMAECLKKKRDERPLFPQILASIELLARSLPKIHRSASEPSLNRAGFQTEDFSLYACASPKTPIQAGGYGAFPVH

| Compound | IC50 (A375 cells; [6]) [nM] | IC50 (BRAFV600E) [nM] | IC50 (A375 cells; [5]) [nM] | AUC(0-t) ([1]; iv, i.v. (2.5 mg/kg)) [µg·h/mL] | clearance ([1]; iv, i.v. (2.5 mg/kg)) [mL/min/kg] | half-life ([1]; iv, i.v. (2.5 mg/kg)) [h] | Vd ([1]; iv, i.v. (2.5 mg/kg)) [L/kg] | bioavailability ([1]; po, i.g. (10 mg/kg)) [%] | AUC(0-t) ([1]; po, i.g. (10 mg/kg)) [µg·h/mL] | half-life ([1]; po, i.g. (10 mg/kg)) [h] | Fold change in brain-blood ratio relative to control compound [4] | further results |
| --- | --- | --- | --- | --- | --- | --- | --- | --- | --- | --- | --- | --- |
| CC=C1CN(S(=O)(=O)Nc2ccc(F)c(Oc3ccc4ncn(CC(F)F)c(=O)c4c3)c2C#N)C1 [Compound 7] | ≤ 10 | ≤ 10 | 0.66 | 228 | 0.171 | 12.8 | 0.156 | 90.6 | 825 | 10.7 | 10.5 | AUC(0-t) ([2]; iv, i.v. (2.5 mg/kg)): 376 µg·h/mL; clearance ([2]; iv, i.v. (2.5 mg/kg)): 0.109 mL/min/kg; half-life ([2]; iv, i.v. (2.5 mg/kg)): 14.2 h; Vd ([2]; iv, i.v. (2.5 mg/kg)): 0.096 L/kg; bioavailability ([2]; po, i.g. (10 mg/kg)): 81.3%; AUC(0-t) ([2]; po, i.g. (10 mg/kg)): 1220 µg·h/mL; half-life ([2]; po, i.g. (10 mg/kg)): 13.5 h; Percentage of drug remaining after 60 min of incubation [3]: 48.2% |
| C=C1CN(S(=O)(=O)Nc2ccc(F)c(Oc3ccc4ncn(CCF)c(=O)c4c3)c2C#N)C1 [Compound 5] | ≤ 10 | – | – | – | – | – | – | – | – | – | – | – |
| C=C1CN(S(=O)(=O)Nc2ccc(F)c(Oc3ccc4ncn(CC(F)F)c(=O)c4c3)c2C#N)C1 [Compound 3] | ≤ 10 | ≤ 10 | 0.14 | 225 | 0.186 | 8.68 | 0.112 | 84.5 | 762 | 10.3 | 10.8 | AUC(0-t) ([2]; iv, i.v. (2.5 mg/kg)): 41 µg·h/mL; clearance ([2]; iv, i.v. (2.5 mg/kg)): 0.091 mL/min/kg; half-life ([2]; iv, i.v. (2.5 mg/kg)): 19.1 h; Vd ([2]; iv, i.v. (2.5 mg/kg)): 0.126 L/kg; bioavailability ([2]; po, i.g. (10 mg/kg)): 62.8%; AUC(0-t) ([2]; po, i.g. (10 mg/kg)): 1030 µg·h/mL; half-life ([2]; po, i.g. (10 mg/kg)): 13.9 h; Percentage of drug remaining after 60 min of incubation [3]: 56.1% |
| CC(F)=C1CN(S(=O)(=O)Nc2ccc(F)c(Oc3ccc4ncn(CC(F)F)c(=O)c4c3)c2C#N)C1 [Compound 24] | ≤ 10 | ≤ 10 | 2.16 | 91.8 | 0.462 | 8.1 | 0.237 | > 98 | 492 | 9.83 | 8.1 | – |
| N#Cc1c(NS(=O)(=O)N2CC3(CCC3)C2)ccc(F)c1Oc1ccc2ncc(N3CCOCC3)nc2c1 [Compound 2] | 10 to 50 | – | – | – | – | – | – | – | – | – | – | – |
| CC(C)=C1CN(S(=O)(=O)Nc2ccc(F)c(Oc3ccc4ncn(CC(F)F)c(=O)c4c3)c2C#N)C1 [Compound 4] | 10 to 50 | – | – | – | – | – | – | – | – | – | – | – |

Continued, in another order:

| IC50 (A375 cells; [6]) [nM] | Compound | IC50 (BRAFV600E) [nM] | IC50 (A375 cells; [5]) [nM] | AUC(0-t) ([1]; iv, i.v. (2.5 mg/kg)) [µg·h/mL] | clearance ([1]; iv, i.v. (2.5 mg/kg)) [mL/min/kg] | half-life ([1]; iv, i.v. (2.5 mg/kg)) [h] | Vd ([1]; iv, i.v. (2.5 mg/kg)) [L/kg] | bioavailability ([1]; po, i.g. (10 mg/kg)) [%] | AUC(0-t) ([1]; po, i.g. (10 mg/kg)) [µg·h/mL] | half-life ([1]; po, i.g. (10 mg/kg)) [h] | Fold change in brain-blood ratio relative to control compound [4] | further results |
| --- | --- | --- | --- | --- | --- | --- | --- | --- | --- | --- | --- | --- |
| 10 to 50 | C=C1CC(Cn2cnc3ccc(Oc4c(F)ccc(NS(=O)(=O)N5CC6(CCC6)C5)c4C#N)cc3c2=O)C1 [Compound 9] | – | – | – | – | – | – | – | – | – | – | – |
| ≤ 10 | N#Cc1c(NS(=O)(=O)N2CCC(=CF)C2)ccc(F)c1Oc1ccc2ncn(CC(F)F)c(=O)c2c1 (single isomer, unassigned) [Compound 15] | – | – | – | – | – | – | – | – | – | – | – |
| ≤ 10 | CC=C1CN(S(=O)(=O)Nc2ccc(F)c(Oc3ccc4ncn(C)c(=O)c4c3)c2C#N)C1 [Compound 27] | – | – | – | – | – | – | – | – | – | – | – |
| 10 to 50 | CC=C1CN(S(=O)(=O)Nc2ccc(F)c(Oc3ccc4c(c3)C3=NCCN3C=N4)c2C#N)C1 [Compound 22] | – | – | – | – | – | – | – | – | – | – | – |
